In ChEMBL document CHEMBL1149597, “Structure-activity relationships of semisynthetic mumbaistatin analogs” (Bioorg Med Chem, 2007):
The source made the active and inactive calls. No cut-off for these calls is given here.

target: T1, Glucose-6-phosphate exchanger SLC37A4 (Homo sapiens, UniProt O43826); assay: (§1) Inhibition of glucose 6 phosphate translocase 1
T1 sequence (O43826 whole entry): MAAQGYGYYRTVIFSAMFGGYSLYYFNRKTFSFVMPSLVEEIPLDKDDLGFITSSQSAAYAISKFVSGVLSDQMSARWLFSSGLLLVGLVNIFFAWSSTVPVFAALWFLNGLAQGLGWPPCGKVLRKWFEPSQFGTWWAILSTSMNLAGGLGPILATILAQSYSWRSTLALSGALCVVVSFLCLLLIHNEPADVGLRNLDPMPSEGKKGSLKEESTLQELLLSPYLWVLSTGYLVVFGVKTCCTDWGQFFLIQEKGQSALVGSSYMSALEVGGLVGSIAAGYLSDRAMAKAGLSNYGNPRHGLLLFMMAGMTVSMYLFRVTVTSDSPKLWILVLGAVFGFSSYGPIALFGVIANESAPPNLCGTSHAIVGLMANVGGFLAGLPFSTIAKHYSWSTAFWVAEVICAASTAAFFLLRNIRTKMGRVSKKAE

Which IC50 does the source give for `CCCCCC/C=C/c1c(C(=O)O)c(OC)cc2c1C(=O)c1c(O)cccc1C2=O` here?
The IC50 was 50 µM.

Which IC50 does the source give for `O=C(O)CC(O)CCC(=O)c1cccc(O)c1C(=O)c1c(C(=O)O)c(O)cc2c1C(=O)c1c(O)cccc1C2=O` (centres undefined) [MUMBAISTATIN] here?
The IC50 was 0.005 µM.

For `COc1cc2c(c(Cc3ccccc3)c1C(=O)O)C(=O)c1c(O)cccc1C2=O`, which IC50 is on record?
The IC50 was 20 µM.

With `CCC(C)CCc1c(C(=O)O)c(O)cc2c1C(=O)c1c(O)cccc1C2=O` (centres undefined) as the molecule, how does the IC50 read?
The IC50 was 200 µM.

For `O=C1c2cccc(O)c2C(=O)c2c1cc(O)c1c2CC(c2cccc3ccccc23)OC1=O` (centres undefined), which IC50 is on record?
Its IC50 is 5 µM.

With `COc1cc2c(c(CSc3ccccc3)c1C(=O)O)C(=O)c1c(O)cccc1C2=O` as the molecule, how does the IC50 read?
The IC50 was 50 µM.

For `COc1cc2c(c(/C=C/c3cccc4ccccc34)c1C(=O)O)C(=O)c1c(O)cccc1C2=O`, which IC50 is on record?
The IC50 was 2.5 µM.

`C=C(c1cccc(O)c1C(=O)O)c1c(O)cccc1C(CCCCC)OC` (centres undefined) was tested. Which IC50 did it give?
The IC50 was 50 µM.

For `CCCCc1c(C(=O)O)c(O)cc2c1C(=O)c1c(O)cccc1C2=O`, which IC50 is on record?
Its IC50 is 100 µM.

`CC/C=C/c1c(C(=O)O)c(OC)cc2c1C(=O)c1c(O)cccc1C2=O` was tested. Which IC50 did it give?
Its IC50 is 12.5 µM.

For `COc1cc2c(c(/C=C/c3ccccc3)c1C(=O)O)C(=O)c1c(O)cccc1C2=O`, which IC50 is on record?
Its IC50 is 2.5 µM.

Which IC50 does the source give for `C=CCCOc1ccccc1/C=C/c1c(C(=O)O)c(OC)cc2c1C(=O)c1c(OC)cccc1C2=O` here?
The IC50 was 20 µM.

target: T2, Glucose-6-phosphate exchanger SLC37A4 (Homo sapiens) (UniProt O43826); assay: as §1
T2 sequence (whole entry): T1 sequence (O43826 whole entry)

How did the Activity turn out when `Cc1c(C(=O)O)c(O)cc2c1C(=O)c1c(O)cccc1C2=O` was run?
Its Activity is “inactive”.

tested on: Hepatocyte; assay: Inhibition of glucagon-stimulated glucose production in rat hepatocytes at 280 uM; format: functional

For `COc1cc2c(c(/C=C/c3cccc4ccccc34)c1C(=O)O)C(=O)c1c(O)cccc1C2=O`, which inhibition at 280 µM is on record?
The inhibition at 280 µM was 40%.
